Measured values taken from patent US20230152316A1, “SARS-COV2 SPIKE PROTEIN BINDING PEPTIDES” (priority 2020, published 2023).

Target: SARS-CoV-2-RBD (insect-derived) (Severe acute respiratory syndrome coronavirus 2, UniProt P0DTC2, F486P)

## TFLDKFNHEAED [SEQ ID NO: 15]
  binding to SARS-CoV-2-RBD: did not bind
